Experimental data taken from patent publication US10245246B2, “β-substituted β-amino acids and analogs as chemotherapeutic agents” (QUADRIGA BIOSCIENCES, INC., priority 2014, dated 2019).

Experiments:
[1] = tested on: LLCPK cells conditionally expressing hLAT1; assay type: cell-based
B16 melanoma cells = assay: In vivo tumor growth suppression, B16 efficacy model; settings: C57BL/6 mice, s.c. B16 melanoma, dosed IP daily for 12 days; test compound 5 and 10 mg/kg, melphalan 2.5 mg/kg

N[C@@H](Cc1ccc(N(CCCl)CCCl)cc1)C(=O)O [Melphalan]
percent surviving cells in cells expressing LAT1 compared to cells not expressing LAT1 (reduction) [1]: about the same
Tumor Growth (% Control), 5 days post-dosing (B16 melanoma cells): 56 % Control
Tumor Growth (% Control), End of dosing (B16 melanoma cells): 33 % Control
